How the values were obtained:
Assay type in all cases: cell-based, murine
[1] = biological target: Ba/F3 EGFR L858R/C797S mutants (Homo sapiens, UniProt P00533, C797S/L858R, cells depend on it); assay: CellTiter-Glo cell viability, Ba/F3 EGFR L858R/C797S cells; conditions: 72 hours, read-out: Ba/F3 EGFR mutant cell (IC50, nM) L/C
Outline: (§1)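 EGFR-driven Ba/F3 cells, 2500 per well, exposed 72 h at 37° C to compound (top 2000 nM, ~3-fold steps). Readout: cellular ATP, luminescence; IC50 calculated.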

[2] = biological target: Ba/F3 EGFR Del19/T790M/C797S mutants (Homo sapiens, UniProt P00533, T790M/C797S, cells depend on it, form not given); assay: CellTiter-Glo cell viability, Ba/F3 EGFR Del19/T790M/C797S cells; conditions: 72 hours, read-out: Ba/F3 EGFR mutant cell (IC50, nM) D/T/C
Chain of Ba/F3 EGFR Del19/T790M/C797S mutants (P00533 with tags, fused parts or gaps DEL746-750/T790M/C797S, form open): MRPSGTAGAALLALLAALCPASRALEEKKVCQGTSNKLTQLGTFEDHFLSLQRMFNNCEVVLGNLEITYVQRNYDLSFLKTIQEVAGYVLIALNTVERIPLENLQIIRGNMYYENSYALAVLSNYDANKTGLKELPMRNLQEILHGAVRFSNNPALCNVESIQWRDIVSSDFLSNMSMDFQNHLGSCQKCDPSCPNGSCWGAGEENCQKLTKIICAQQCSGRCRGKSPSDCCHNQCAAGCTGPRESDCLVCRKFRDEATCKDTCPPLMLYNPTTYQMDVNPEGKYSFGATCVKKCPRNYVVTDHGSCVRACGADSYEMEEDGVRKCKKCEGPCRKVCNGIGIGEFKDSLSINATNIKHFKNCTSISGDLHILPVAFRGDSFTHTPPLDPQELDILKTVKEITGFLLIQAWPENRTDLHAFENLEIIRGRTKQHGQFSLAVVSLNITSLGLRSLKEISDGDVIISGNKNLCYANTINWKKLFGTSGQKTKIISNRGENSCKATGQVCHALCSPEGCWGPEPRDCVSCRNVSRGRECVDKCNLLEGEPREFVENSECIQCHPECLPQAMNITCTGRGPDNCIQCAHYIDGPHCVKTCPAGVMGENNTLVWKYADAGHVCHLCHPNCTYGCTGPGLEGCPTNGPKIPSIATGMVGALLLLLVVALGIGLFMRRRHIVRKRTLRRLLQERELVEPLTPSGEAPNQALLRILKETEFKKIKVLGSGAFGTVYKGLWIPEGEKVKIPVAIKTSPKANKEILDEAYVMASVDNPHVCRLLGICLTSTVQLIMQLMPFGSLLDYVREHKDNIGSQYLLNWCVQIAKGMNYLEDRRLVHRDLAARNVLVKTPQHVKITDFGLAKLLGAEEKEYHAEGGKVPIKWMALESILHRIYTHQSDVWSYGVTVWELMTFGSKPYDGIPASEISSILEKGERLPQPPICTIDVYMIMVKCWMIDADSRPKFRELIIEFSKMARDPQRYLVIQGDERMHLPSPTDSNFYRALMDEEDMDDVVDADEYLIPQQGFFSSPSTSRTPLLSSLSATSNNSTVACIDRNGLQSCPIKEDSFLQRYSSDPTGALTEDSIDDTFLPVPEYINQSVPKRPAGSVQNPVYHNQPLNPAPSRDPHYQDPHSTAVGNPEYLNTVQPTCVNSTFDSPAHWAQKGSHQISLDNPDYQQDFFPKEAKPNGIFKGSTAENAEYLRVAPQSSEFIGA
Outline: as §1

[3] = biological target: Ba/F3 EGFR L858R/T790M/C797S mutants (Homo sapiens, UniProt P00533, T790M/C797S/L858R, cells depend on it); assay: CellTiter-Glo cell viability, Ba/F3 EGFR L858R/T790M/C797S cells; conditions: 72 hours, read-out: Ba/F3 EGFR mutant cell (IC50, nM) L/T/C
Chain of Ba/F3 EGFR L858R/T790M/C797S mutants (P00533 whole entry T790M/C797S/L858R): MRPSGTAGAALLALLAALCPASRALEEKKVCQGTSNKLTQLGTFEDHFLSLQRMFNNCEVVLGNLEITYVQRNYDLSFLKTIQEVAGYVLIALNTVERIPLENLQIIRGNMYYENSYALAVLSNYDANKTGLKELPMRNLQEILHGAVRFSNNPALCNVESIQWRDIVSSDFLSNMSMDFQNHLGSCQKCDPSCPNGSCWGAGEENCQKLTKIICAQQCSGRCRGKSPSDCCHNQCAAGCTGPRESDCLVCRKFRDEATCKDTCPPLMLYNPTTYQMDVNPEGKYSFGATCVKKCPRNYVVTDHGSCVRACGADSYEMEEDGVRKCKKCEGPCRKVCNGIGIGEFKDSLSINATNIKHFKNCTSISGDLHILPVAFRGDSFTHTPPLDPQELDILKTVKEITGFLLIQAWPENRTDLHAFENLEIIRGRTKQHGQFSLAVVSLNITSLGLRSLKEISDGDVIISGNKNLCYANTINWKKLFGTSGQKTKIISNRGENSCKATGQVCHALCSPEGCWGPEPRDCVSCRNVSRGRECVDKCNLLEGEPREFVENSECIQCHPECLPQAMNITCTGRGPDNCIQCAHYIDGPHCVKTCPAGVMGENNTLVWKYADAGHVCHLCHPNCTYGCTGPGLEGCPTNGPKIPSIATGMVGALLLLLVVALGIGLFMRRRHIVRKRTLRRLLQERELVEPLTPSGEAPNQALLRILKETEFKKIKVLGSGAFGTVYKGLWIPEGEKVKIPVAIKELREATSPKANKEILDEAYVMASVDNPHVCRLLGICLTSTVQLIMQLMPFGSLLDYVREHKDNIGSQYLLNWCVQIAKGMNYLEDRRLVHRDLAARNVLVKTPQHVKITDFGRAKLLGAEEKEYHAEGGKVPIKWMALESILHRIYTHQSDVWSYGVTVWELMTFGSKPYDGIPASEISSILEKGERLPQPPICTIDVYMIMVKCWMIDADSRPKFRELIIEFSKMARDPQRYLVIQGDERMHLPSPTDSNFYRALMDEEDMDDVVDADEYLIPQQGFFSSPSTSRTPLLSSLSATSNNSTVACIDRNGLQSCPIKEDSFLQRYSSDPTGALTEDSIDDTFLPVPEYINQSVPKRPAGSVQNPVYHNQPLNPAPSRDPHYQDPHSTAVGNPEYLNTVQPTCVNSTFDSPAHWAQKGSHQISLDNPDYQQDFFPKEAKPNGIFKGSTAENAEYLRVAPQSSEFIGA
Outline: as §1

[4] = biological target: Ba/F3 EGFR Del19/C797S mutants (Homo sapiens, UniProt P00533, C797S, cells depend on it, form not given); assay: CellTiter-Glo cell viability, Ba/F3 EGFR Del19/C797S cells; conditions: 72 hours, read-out: Ba/F3 EGFR mutant cell (IC50, nM) D/C
Chain of Ba/F3 EGFR Del19/C797S mutants (P00533 with tags, fused parts or gaps DEL746-750/C797S, form open): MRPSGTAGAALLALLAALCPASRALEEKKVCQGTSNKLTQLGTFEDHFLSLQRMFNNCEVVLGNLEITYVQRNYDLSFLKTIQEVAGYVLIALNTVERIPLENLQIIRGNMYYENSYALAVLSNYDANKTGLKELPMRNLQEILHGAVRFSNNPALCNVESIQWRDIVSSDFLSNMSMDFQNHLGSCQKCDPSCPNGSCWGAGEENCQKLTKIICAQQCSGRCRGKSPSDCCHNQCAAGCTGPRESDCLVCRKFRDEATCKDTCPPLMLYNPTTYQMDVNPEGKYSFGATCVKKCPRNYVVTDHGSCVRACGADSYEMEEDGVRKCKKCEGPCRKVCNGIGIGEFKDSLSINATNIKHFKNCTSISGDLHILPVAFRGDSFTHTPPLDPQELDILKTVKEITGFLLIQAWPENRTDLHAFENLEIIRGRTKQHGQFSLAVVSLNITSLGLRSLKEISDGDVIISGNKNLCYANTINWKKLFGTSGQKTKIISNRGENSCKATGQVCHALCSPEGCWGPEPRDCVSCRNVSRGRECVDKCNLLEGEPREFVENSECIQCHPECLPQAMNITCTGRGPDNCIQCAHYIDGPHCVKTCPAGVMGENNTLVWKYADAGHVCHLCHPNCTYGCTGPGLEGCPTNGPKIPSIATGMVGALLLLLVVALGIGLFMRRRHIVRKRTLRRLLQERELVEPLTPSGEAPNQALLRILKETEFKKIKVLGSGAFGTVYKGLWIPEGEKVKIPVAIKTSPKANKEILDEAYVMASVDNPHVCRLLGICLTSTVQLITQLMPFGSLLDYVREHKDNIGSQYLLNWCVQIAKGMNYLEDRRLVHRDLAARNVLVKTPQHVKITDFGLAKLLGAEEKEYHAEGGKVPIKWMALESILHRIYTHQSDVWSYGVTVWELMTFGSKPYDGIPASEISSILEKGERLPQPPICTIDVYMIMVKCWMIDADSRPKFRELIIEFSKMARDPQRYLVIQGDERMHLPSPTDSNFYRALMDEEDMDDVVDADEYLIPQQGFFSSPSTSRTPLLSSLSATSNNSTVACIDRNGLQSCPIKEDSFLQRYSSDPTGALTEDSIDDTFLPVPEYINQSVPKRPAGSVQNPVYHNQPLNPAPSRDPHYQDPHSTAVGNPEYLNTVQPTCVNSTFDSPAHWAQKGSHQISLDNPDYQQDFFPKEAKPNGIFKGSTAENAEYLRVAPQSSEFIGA
Outline: as §1

Ba/F3 EGFR Wild-type = Ba/F3 EGFR Wild-type (Homo sapiens, UniProt P00533); assay: CellTiter-Glo cell viability, Ba/F3 EGFR wild-type cells; conditions: 72 hours, read-out: Ba/F3 EGFR mutant cell (IC50, nM) WT
Outline: as §1

[5] = biological target: Ba/F3 EGFR Del19/T790M mutants (Homo sapiens, UniProt P00533, T790M, cells depend on it, form not given); assay: CellTiter-Glo cell viability, Ba/F3 EGFR Del19/T790M cells; conditions: 72 hours, read-out: Ba/F3 EGFR mutant cell (IC50, nM) D/T
Chain of Ba/F3 EGFR Del19/T790M mutants (P00533 with tags, fused parts or gaps DEL746-750/T790M, form open): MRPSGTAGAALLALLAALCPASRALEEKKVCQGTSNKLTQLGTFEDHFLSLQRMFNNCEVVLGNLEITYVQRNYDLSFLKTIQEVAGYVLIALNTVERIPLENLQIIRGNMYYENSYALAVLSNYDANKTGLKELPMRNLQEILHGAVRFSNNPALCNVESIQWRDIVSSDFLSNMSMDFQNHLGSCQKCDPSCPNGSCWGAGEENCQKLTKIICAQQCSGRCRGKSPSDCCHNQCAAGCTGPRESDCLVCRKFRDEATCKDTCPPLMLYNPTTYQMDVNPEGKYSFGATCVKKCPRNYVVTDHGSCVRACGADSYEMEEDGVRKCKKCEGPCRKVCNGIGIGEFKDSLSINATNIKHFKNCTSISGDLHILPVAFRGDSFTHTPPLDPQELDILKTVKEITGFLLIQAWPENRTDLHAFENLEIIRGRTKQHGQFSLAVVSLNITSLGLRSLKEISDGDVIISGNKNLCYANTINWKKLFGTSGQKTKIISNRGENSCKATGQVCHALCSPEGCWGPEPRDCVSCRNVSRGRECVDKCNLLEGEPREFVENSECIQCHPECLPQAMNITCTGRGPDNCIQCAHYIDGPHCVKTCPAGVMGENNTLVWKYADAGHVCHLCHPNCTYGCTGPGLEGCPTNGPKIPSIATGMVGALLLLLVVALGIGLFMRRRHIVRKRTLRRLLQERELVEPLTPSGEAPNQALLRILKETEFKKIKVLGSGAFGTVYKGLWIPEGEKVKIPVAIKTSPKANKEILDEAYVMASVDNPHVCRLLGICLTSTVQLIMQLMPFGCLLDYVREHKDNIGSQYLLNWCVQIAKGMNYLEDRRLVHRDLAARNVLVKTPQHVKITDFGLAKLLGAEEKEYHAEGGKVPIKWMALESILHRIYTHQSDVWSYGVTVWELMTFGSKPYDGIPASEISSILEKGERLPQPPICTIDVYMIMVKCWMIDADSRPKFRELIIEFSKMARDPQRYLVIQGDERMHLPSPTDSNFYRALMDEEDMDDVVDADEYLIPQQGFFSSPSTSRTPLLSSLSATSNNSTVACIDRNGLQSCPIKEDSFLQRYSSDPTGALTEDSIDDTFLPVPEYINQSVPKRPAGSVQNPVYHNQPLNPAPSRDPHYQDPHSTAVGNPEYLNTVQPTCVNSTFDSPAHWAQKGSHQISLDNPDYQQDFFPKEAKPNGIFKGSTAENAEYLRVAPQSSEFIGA
Protocol: In order to evaluate an inhibitory ability on wild-type Ba/F3 EGFR and Ba/F3 EGFR mutations in Ba/F3 cell lines by the compounds of Formula 1, the experiment was carried out as described below.
The measurement of activities on Ba/F3 cells harboring wild-type EGFR and EGFR mutants by the compounds of the present invention were determined utilizing the CELLTITER-GLO™ system from Promega, as follows. The CELLTITER-GLO™ assay is a method for measuring the ATP present in cells to determine the cell viability. Ba/F3 EGFR wild-type and Ba/F3 EGFR L858R/C797S (L/C), Ba/F3 EGFR L858R/T790M/C797S (L/T/C), Ba/F3 EGFR Del19/T790M (D/T), Ba/F3 EGFR Del19/C797S (D/C), Ba/F3 EGFR Del19/T790M/C797S (D/T/C) mutant cell lines were maintained in RPMI1640, containing […], 1% penicillin-streptomycin, […] puromycin. Cells were grown in a humidified incubator at 37° C. with […].
The analysis of an EGFR inhibitory activity by the compounds was carried out in accordance with the analysis reaction recipe below.
2500 cells/90 μL were seeded in 96 well cell culture plate, and after 24 hours, treated with the compounds represented by Formula 1 in concentrations of 0, 0.3, 0.9, 2.7, 8.2, 24.7, 74.1, 222.2, 666.7, 2000 (nM). After the reaction of 72 hours, the plate was incubated for 30 minutes at ambient temperature, and then, was further treated with 100 μL of the CELLTITER-GLO™ reagent and was shaken for 10 minutes at ambient temperature. Finally, measurement of the luminescence values were obtained using the SPECTRAMAX™ iD3 (Molecular Devices), and the IC50 values of the compound were analyzed using the GraphPad Prism program (version 9.0.2, GraphPad Software, Inc.).

SMILES: CCCc1cc(Nc2ncc(Cl)c(Nc3cccc(OC)c3N(C)S(C)(=O)=O)n2)c(OC)cc1N1CCC(N(C)C)CC1 [Example C31, N-(2-((5-chloro-2-((4-(4-(dimethylamino)piperidin-1-yl)-2-methoxy-5-propylphenyl)amino)pyrimidin-4-yl)amino)-6-methoxyphenyl)-N-methylmethanesulfonamide]
- GI50 [1]: 89 nM
- GI50 [2]: 20 nM
- GI50 [3]: 68 nM
- GI50 [4]: 10 nM
- GI50 (Ba/F3 EGFR Wild-type): 698 nM
- GI50 [5]: 22 nM

SMILES: CCc1cc(Nc2ncc(Br)c(Nc3ccc4nccnc4c3N(C)S(C)(=O)=O)n2)c(OC)cc1N1CCC(N(C)C)CC1 [Example B14, N-(6-((5-bromo-2-((4-(4-(dimethylamino)piperidin-1-yl)-5-ethyl-2-methoxyphenyl)amino)pyrimidin-4-yl)amino)quinoxalin-5-yl)-N-methylmethanesulfonamide]
- GI50 [1]: 41 nM
- GI50 [2]: 8 nM
- GI50 [3]: 23 nM
- GI50 [4]: 6 nM
- GI50 (Ba/F3 EGFR Wild-type): 427 nM
- GI50 [5]: 3 nM

SMILES: COc1ccc(Nc2nc(Nc3cc(C)c(N4CCC(N5CCN(C)CC5)CC4)cc3OC)ncc2Br)c(NS(C)(=O)=O)c1 [Example C2, N-(2-((5-bromo-2-((2-methoxy-5-methyl-4-(4-(4-methylpiperazin-1-yl)piperidin-1-yl)phenyl)amino)pyrimidin-4-yl)amino)-5-methoxyphenyl)methanesulfonamide]
- GI50 [1]: 32 nM
- GI50 [2]: 9 nM
- GI50 [3]: 18 nM
- GI50 [4]: 13 nM
- GI50 (Ba/F3 EGFR Wild-type): 385 nM
- GI50 [5]: 3 nM

SMILES: CCc1cc(Nc2ncc(Cl)c(Nc3ccc(OC)c(OC)c3NS(C)(=O)=O)n2)c(OC)cc1N1CCC(N2CCOCC2)CC1 [Example C18, N-(6-((5-chloro-2-((5-ethyl-2-methoxy-4-(4-morpholinopiperidin-1-yl)phenyl)amino)pyrimidin-4-yl)amino)-2,3-dimethoxyphenyl)methanesulfonamide]
- GI50 [1]: 215 nM
- GI50 [2]: 54 nM
- GI50 [3]: 194 nM
- GI50 [4]: 55 nM
- GI50 (Ba/F3 EGFR Wild-type): 835 nM
- GI50 [5]: 39 nM

SMILES: CCCc1cc(Nc2ncc(Cl)c(Nc3ccc4nccnc4c3N(C)S(C)(=O)=O)n2)c(OC)cc1N1CCC(N2CCOCC2)CC1 [Example A41, N-(6-((5-chloro-2-((2-methoxy-4-(4-morpholinopiperidin-1-yl)-5-propylphenyl)amino)pyrimidin-4-yl)amino)quinoxalin-5-yl)-N-methylmethanesulfonamide]
- GI50 [1]: 210 nM
- GI50 [2]: 28 nM
- GI50 [3]: 258 nM
- GI50 [4]: 8 nM
- GI50 (Ba/F3 EGFR Wild-type): > 2000 nM
- GI50 [5]: 44 nM

SMILES: CCc1cc(Nc2ncc(Br)c(Nc3ccc4nccnc4c3N(C)S(C)(=O)=O)n2)c(OC)cc1N1CCC(N2CC3CCC2CN3C)CC1 (stereo not drawn) [Example A48, N-(6-((5-bromo-2-((5-ethyl-2-methoxy-4-(4-(5-methyl-2,5-diazabicyclo[2.2.2]octan-2-yl)piperidin-1-yl)phenyl)amino)pyrimidin-4-yl)amino)quinoxalin-5-yl)-N-methylmethanesulfonamide]
- GI50 [1]: 112 nM
- GI50 [2]: 17 nM
- GI50 [3]: 28 nM
- GI50 [4]: 6 nM
- GI50 (Ba/F3 EGFR Wild-type): 601 nM
- GI50 [5]: 9 nM

SMILES: CCCc1cc(Nc2ncc(Cl)c(Nc3ccc4nccnc4c3N(C)S(C)(=O)=O)n2)c(OC)cc1N1CCC(N2CCCC2)CC1 [Example A42, N-(6-((5-chloro-2-((2-methoxy-5-propyl-4-(4-(pyrrolidin-1-yl)piperidin-1-yl)phenyl)amino)pyrimidin-4-yl)amino)quinoxalin-5-yl)-N-methylmethanesulfonamide]
- GI50 [1]: 80 nM
- GI50 [2]: 7 nM
- GI50 [3]: 117 nM
- GI50 [4]: 2 nM
- GI50 (Ba/F3 EGFR Wild-type): 1860 nM
- GI50 [5]: 33 nM

From US12297194B2, “N2-phenylpyrimidine-2,4-diamine compounds, and preparation methods and methods of use thereof” (BRIDGE BIOTHERAPEUTICS, INC., priority 2021, dated 2025)
